The subject of data set [1] is HepG2. As to the kind of experiment: Antiproliferative activity against human HepG2 cells assessed as reduction in cell viability after 48 hrs by MTT assay. Type of data set: functional, cell-based. As to conditions: HepG2, 48 h.
For data set [2], the system named is Huh-7. Nature of the data set: Antiproliferative activity against human Huh-7 cells assessed as reduction in cell viability after 48 hrs by MTT assay. Type of data set: functional, cell-based. The following applies: Huh-7, 48 h. For orientation: Tetrazolium dyes change colour on reduction, which living cells bring about.
The test system of data set [3] is Hep 3B2. Nature of the data set: Antiproliferative activity against human Hep3B cells assessed as cell viability at 10 uM after 48 hrs by MTT assay relative to control. Type of data set: functional. As to conditions: read-out: Activity.
The subject of data set [4] is Huh-7. As to the kind of experiment: Antiproliferative activity against human Huh-7 cells assessed as cell viability at 10 uM after 48 hrs by MTT assay relative to control. Type of data set: functional. The following applies: read-out: Activity.
For data set [5], the system named is HepG2. As to the kind of experiment: Antiproliferative activity against human HepG2 cells assessed as cell viability at 10 uM after 48 hrs by MTT assay relative to control. Type of data set: functional. As to conditions: read-out: Activity.
Data set [6] concerns Hep 3B2. As to the kind of experiment: Antiproliferative activity against human Hep3B cells assessed as reduction in cell viability after 48 hrs by MTT assay. Type of data set: functional, cell-based.
The next data set relates to WI-38. Nature of the data set: Cytotoxicity against human WI-38 cells assessed as cell viability after 48 hrs by MTT assay. Type of data set: cell-based. As to conditions: WI-38, 48 h.
The target of data set [7] is T1, Serine/threonine-protein kinase A-Raf (Homo sapiens) (UniProt P10398).
T1 sequence (whole entry): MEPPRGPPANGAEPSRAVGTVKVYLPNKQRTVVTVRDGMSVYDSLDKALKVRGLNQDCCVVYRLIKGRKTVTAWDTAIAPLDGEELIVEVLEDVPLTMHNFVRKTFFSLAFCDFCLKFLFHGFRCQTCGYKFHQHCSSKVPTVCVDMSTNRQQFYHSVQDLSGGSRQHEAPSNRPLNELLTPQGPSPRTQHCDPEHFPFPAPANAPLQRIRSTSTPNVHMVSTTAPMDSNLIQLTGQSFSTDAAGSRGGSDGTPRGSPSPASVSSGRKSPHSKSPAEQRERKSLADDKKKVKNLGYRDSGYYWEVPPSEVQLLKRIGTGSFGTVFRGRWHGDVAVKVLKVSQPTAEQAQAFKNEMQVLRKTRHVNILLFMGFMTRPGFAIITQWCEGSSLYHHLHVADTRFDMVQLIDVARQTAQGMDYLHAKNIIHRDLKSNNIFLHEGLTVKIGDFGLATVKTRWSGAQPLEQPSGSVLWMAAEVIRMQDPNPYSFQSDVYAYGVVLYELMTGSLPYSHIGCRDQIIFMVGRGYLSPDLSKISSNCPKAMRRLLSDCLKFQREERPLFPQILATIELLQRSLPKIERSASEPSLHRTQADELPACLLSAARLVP
As to the kind of experiment: Inhibition of A-Raf (unknown origin) in presence of [gamma33]-ATP at 10 uM by liquid scintillation counting analysis relative to control.

The target of data set [8] is T2, Mast/stem cell growth factor receptor Kit (Homo sapiens, UniProt P10721). Nature of the data set: Inhibition of CKIT (unknown origin) in presence of [gamma33]-ATP at 10 uM by liquid scintillation counting analysis relative to control.
Data set [9] deals with RAF proto-oncogene serine/threonine-protein kinase (Homo sapiens) (UniProt P04049). As to the kind of experiment: Inhibition of C-Raf (unknown origin) in presence of [gamma33]-ATP at 10 uM by liquid scintillation counting analysis relative to control.
Data set [10] addresses T3, Vascular endothelial growth factor receptor 3 (Homo sapiens, UniProt P35916). As to the kind of experiment: Inhibition of Flt4 (unknown origin) in presence of [gamma33]-ATP at 10 uM by liquid scintillation counting analysis relative to control.
Data set [11] deals with Dual specificity mitogen-activated protein kinase kinase 1 (Homo sapiens) (UniProt Q02750). As to the kind of experiment: Inhibition of MEK-1 (unknown origin) in presence of [gamma33]-ATP at 10 uM by liquid scintillation counting analysis relative to control.
In data set [12] the target is T4, Platelet-derived growth factor receptor alpha (Homo sapiens, UniProt P16234). Nature of the data set: Inhibition of PDGFRalpha (unknown origin) in presence of [gamma33]-ATP at 10 uM by liquid scintillation counting analysis relative to control.
Data set [13] concerns the target Platelet-derived growth factor receptor beta (Homo sapiens) (UniProt P09619). Nature of the data set: Inhibition of PDGFRbeta (unknown origin) in presence of [gamma33]-ATP at 10 uM by liquid scintillation counting analysis relative to control.
Data set [14] deals with T3, Vascular endothelial growth factor receptor 3. As to the kind of experiment: Inhibition of Flt4 (unknown origin) in presence of [gamma33]-ATP by liquid scintillation counting analysis.
The target of data set [15] is T5, Vascular endothelial growth factor receptor 2 (Homo sapiens, UniProt P35968). As to the kind of experiment: Inhibition of KDR (unknown origin) in presence of [gamma33]-ATP by liquid scintillation counting analysis.
The target in data set [16] is T2, Mast/stem cell growth factor receptor Kit. Nature of the data set: Inhibition of CKIT (unknown origin) in presence of [gamma33]-ATP by liquid scintillation counting analysis.
Data set [17] addresses T4, Platelet-derived growth factor receptor alpha. Nature of the data set: Inhibition of PDGFRalpha (unknown origin) in presence of [gamma33]-ATP by liquid scintillation counting analysis.
Data set [18] has as its target T5, Vascular endothelial growth factor receptor 2. Nature of the data set: Inhibition of VEGFR2 autophosphorylation in VEGF-stimulated human HepG2 cells after 2 hrs Western blot analysis. The following applies: dose 1-3 µM.
The test system of data set [19] is HepG2. Nature of the data set: Induction of apoptosis in human HepG2 cells assessed as increase in caspase 3/7 activity at 1.95 uM. It counts as functional.
For data set [20], the system named is HepG2. Nature of the data set: Induction of necrosis in human HepG2 cells assessed as increase in LDH release at 1.95 uM. It counts as functional.
For the next data set, the target named is hERG (KCNH2) (Homo sapiens, UniProt Q12809). Nature of the data set: Potency index, ratio of E-4031 IC50 to compound IC50 for inhibition of human ERG. As to conditions: read-out: Ratio IC50.

T4 sequence (P16234 whole entry): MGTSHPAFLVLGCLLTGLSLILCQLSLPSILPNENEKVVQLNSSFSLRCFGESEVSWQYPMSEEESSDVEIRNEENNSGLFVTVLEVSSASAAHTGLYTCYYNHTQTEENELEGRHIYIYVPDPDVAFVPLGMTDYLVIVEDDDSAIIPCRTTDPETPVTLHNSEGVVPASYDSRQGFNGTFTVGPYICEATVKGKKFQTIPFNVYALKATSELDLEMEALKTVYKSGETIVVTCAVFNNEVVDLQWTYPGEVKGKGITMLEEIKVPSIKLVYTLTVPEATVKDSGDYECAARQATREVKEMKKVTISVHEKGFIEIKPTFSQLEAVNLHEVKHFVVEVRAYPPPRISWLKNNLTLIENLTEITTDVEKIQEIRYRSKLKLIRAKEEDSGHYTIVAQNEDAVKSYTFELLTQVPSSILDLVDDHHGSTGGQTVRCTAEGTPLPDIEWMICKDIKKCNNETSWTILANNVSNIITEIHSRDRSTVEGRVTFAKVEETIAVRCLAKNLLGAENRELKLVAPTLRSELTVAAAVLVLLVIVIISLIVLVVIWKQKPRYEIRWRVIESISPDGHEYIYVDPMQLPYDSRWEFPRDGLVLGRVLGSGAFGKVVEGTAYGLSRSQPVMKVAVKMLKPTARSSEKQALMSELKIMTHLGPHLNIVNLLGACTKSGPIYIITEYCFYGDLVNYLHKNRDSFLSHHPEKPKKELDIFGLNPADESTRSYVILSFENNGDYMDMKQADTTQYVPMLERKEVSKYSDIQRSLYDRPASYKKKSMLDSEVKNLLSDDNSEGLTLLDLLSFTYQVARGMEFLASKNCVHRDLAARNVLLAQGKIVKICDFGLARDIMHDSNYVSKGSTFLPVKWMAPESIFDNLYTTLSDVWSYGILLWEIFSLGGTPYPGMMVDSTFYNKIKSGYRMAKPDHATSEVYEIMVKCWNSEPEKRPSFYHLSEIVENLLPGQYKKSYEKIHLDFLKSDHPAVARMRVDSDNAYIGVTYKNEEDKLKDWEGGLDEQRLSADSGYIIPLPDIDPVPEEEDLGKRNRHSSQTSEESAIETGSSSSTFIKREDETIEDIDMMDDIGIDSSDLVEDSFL
T3 sequence (P35916 whole entry): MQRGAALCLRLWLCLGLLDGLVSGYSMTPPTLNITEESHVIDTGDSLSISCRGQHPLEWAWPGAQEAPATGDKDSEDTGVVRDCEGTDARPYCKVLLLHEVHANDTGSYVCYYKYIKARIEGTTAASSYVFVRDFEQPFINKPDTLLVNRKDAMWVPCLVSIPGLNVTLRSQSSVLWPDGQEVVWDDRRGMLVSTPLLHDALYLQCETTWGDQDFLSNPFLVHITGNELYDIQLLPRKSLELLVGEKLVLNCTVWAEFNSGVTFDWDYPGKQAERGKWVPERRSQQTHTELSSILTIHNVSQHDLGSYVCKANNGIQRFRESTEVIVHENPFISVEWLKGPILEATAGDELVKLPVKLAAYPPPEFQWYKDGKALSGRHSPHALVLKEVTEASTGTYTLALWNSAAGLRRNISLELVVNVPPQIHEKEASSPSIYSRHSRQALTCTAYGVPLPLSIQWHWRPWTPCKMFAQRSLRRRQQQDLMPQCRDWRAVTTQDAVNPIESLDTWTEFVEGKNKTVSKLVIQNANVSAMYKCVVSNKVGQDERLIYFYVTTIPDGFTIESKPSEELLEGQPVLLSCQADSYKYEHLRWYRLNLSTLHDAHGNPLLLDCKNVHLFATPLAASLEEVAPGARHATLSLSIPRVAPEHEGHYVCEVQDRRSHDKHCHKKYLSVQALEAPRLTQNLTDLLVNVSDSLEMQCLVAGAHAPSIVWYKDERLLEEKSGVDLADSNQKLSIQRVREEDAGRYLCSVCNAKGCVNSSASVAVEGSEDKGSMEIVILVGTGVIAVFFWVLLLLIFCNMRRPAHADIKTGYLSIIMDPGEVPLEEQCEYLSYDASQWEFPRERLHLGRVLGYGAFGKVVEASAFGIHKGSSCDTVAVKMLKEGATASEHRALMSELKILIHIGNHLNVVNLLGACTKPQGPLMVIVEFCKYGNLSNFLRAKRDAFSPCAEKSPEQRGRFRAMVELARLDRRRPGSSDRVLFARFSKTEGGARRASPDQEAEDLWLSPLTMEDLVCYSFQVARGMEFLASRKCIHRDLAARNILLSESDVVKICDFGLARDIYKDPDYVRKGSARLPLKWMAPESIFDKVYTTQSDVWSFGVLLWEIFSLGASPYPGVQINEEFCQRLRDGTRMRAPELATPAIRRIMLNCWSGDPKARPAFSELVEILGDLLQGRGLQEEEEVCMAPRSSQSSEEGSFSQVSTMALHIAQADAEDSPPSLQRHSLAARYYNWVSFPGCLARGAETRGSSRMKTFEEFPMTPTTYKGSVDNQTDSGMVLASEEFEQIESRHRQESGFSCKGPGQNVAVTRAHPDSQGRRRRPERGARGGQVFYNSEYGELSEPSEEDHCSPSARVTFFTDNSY
T5 sequence (P35968 whole entry): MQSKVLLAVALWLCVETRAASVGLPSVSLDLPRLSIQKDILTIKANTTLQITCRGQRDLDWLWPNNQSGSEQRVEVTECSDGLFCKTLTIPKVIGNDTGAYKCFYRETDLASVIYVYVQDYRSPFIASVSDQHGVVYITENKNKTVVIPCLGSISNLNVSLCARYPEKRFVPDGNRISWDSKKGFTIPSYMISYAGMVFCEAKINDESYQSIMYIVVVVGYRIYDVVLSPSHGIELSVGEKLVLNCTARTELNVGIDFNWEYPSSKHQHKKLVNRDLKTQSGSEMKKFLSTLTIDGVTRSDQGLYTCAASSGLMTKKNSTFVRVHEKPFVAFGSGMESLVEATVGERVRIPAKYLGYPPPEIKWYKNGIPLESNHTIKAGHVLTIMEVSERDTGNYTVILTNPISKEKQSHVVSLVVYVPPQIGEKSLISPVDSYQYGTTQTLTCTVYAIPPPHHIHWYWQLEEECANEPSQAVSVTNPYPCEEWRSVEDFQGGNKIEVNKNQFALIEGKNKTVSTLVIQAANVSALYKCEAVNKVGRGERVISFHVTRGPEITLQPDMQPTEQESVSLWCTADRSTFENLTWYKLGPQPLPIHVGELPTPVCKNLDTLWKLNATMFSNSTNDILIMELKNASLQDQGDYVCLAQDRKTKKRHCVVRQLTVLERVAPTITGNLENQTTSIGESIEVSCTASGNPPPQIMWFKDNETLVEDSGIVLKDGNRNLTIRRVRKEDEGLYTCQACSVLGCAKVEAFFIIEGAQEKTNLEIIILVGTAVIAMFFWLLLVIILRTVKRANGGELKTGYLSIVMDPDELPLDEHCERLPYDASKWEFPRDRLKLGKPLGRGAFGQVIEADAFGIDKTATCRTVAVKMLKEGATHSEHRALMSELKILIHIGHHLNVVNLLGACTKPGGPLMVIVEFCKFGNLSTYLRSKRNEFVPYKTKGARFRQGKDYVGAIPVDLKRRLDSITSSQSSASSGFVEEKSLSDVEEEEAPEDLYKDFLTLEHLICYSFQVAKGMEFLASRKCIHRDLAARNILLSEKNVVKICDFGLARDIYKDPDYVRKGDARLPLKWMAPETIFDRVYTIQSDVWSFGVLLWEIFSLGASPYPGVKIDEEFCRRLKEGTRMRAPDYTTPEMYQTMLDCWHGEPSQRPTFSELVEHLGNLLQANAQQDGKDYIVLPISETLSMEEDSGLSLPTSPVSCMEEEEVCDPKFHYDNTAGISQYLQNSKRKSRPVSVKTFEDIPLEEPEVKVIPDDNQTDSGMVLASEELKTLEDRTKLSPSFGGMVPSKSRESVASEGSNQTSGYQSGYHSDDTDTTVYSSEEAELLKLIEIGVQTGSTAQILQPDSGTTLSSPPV
T2 sequence (P10721 whole entry): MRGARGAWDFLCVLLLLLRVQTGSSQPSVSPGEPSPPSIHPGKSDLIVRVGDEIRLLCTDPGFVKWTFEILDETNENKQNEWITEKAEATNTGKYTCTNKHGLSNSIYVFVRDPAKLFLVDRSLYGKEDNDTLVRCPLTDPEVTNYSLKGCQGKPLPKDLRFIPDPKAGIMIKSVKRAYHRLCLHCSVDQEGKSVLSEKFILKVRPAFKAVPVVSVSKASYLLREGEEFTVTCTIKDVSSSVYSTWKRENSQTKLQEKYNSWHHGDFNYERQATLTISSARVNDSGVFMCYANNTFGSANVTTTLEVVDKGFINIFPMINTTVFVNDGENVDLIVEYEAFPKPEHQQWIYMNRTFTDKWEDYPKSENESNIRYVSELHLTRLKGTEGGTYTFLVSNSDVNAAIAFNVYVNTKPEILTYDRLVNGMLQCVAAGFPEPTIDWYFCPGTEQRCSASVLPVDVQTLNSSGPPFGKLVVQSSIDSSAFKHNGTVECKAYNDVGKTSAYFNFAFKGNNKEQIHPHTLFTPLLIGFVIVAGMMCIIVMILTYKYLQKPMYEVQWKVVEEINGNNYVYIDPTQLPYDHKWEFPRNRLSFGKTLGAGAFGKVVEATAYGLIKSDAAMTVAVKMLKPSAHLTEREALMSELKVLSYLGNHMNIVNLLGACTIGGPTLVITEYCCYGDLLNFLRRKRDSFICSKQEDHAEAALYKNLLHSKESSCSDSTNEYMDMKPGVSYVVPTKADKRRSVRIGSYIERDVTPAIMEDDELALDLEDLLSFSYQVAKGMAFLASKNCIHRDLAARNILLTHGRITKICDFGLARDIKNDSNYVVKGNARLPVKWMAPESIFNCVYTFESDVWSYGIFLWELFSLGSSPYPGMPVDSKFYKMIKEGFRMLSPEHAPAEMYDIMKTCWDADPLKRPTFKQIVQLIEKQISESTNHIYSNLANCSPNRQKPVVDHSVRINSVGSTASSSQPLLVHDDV

The IC50 is the concentration that inhibits the measured activity by half. For orientation: inhibition means the change of the read-out against control, counted positive when it falls. As for `CNC(=O)c1cc(-n2ccc3cc(NC(=O)Nc4ccc(N5CCN(C)CC5)c(C(F)(F)F)c4)ccc32)ccn1`, the IC50 is 1.95 µM in the data set with HepG2 [1]; 4.31 µM in the data set on Huh-7 [2]; 8.01 µM with Hep 3B2 [6]; > 30 µM in the data set on WI-38; 0.0957 µM in [14]; 0.173 µM in [15]. Moreover, the IC50 in data set [16] is 5 µM; in data set [17], > 5 µM. Further, the viability at 10 µM came to 92% with Hep 3B2 [3], 20% in the data set with Huh-7 [4] and 27% with HepG2 [5]. In addition, the inhibition was -4% in data set [7]; 70.5% in data set [8]; -0.5% in [9]; 93.5% in data set [10]; 11.5% in [11]; 71.5% in [12]. Moreover, the inhibition was 47.5% in data set [13] and “Dose-dependent effect” in data set [18]. The Activity in the data set with HepG2 [19] came out at 67.45%; in the data set on HepG2 [20], 21.5%. On hERG (KCNH2), the selectivity ratio was 3720.
